# Measurements: PubChem BioAssay (NCI)
#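 Following 48 hours of exposure in 96-well plates, responses at five concentrations were used to interpolate endpoints linearly. GI50 marks 50% less growth. TGI marks complete inhibition of growth.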
# Key:
# Assay in all cases: NCI anticancer screen, dose series, 48 h
# 786-0 renal = system: 786-0 renal
# A498 renal = system: A498 renal
# A549 NSCLC = system: A549 NSCLC
# ACHN renal = system: ACHN renal
# BT-549 breast = system: BT-549 breast
# CAKI-1 renal = system: CAKI-1 renal
# CCRF-CEM leukemia = system: CCRF-CEM leukemia
# COLO 205 colon = system: COLO 205 colon
# DU-145 prostate = system: DU-145 prostate
# EKVX NSCLC = system: EKVX NSCLC
# HCC-2998 colon = system: HCC-2998 colon
# HCT-116 colon = system: HCT-116 colon
# HCT-15 colon = system: HCT-15 colon
# HL-60(TB) leukemia = system: HL-60(TB) leukemia
# HOP-62 NSCLC = system: HOP-62 NSCLC
# HOP-92 NSCLC = system: HOP-92 NSCLC
# HS 578T breast = system: HS 578T breast
# HT29 colon = system: HT29 colon
# IGROV1 ovarian = system: IGROV1 ovarian
# KM12 colon = system: KM12 colon
# LOX IMVI melanoma = system: LOX IMVI melanoma
# M14 melanoma = system: M14 melanoma
# MALME-3M melanoma = system: MALME-3M melanoma
# MCF7 breast = system: MCF7 breast
# MDA-MB-231 breast = system: MDA-MB-231 breast
# MDA-MB-435 = system: MDA-MB-435
# MOLT-4 leukemia = system: MOLT-4 leukemia
# NCI-H226 lung = system: NCI-H226 lung
# NCI-H23 lung = system: NCI-H23 lung
# NCI-H460 lung = system: NCI-H460 lung
# NCI/ADR-RES ovarian = system: NCI/ADR-RES ovarian
# OVCAR-3 ovarian = system: OVCAR-3 ovarian
# OVCAR-4 ovarian = system: OVCAR-4 ovarian
# OVCAR-5 ovarian = system: OVCAR-5 ovarian
# OVCAR-8 ovarian = system: OVCAR-8 ovarian
# PC-3 prostate = system: PC-3 prostate
# RPMI-8226 leukemia = system: RPMI-8226 leukemia
# RXF 393 renal = system: RXF 393 renal
# SF-268 CNS = system: SF-268 CNS
# SF-295 CNS = system: SF-295 CNS
# SF-539 CNS = system: SF-539 CNS
# SK-MEL-2 melanoma = system: SK-MEL-2 melanoma
# SK-MEL-28 melanoma = system: SK-MEL-28 melanoma
# SK-MEL-5 melanoma = system: SK-MEL-5 melanoma
# SK-OV-3 ovarian = system: SK-OV-3 ovarian
# SN12C renal = system: SN12C renal
# SNB-19 CNS = system: SNB-19 CNS
# SNB-75 CNS = system: SNB-75 CNS
# SR leukemia = system: SR leukemia
# SW-620 colon = system: SW-620 colon
# T-47D breast = system: T-47D breast
# TK-10 renal = system: TK-10 renal
# U251 CNS = system: U251 CNS
# UACC-257 melanoma = system: UACC-257 melanoma
# UACC-62 melanoma = system: UACC-62 melanoma
# UO-31 renal = system: UO-31 renal
compound,measurement,setting,value
C#C[C@]1(O)CC[C@H]2[C@@H]3CC=C4c5sc(Nc6ncccc6C)nc5CC[C@]4(C)[C@H]3CC[C@@]21C,GI50,786-0 renal,355 nM
same,TGI,786-0 renal,1430 nM
same,GI50,A498 renal,454 nM
same,TGI,A498 renal,1910 nM
same,GI50,A549 NSCLC,2050 nM
same,TGI,A549 NSCLC,12800 nM
same,GI50,ACHN renal,1850 nM
same,TGI,ACHN renal,10700 nM
same,GI50,BT-549 breast,1170 nM
same,TGI,BT-549 breast,4120 nM
same,GI50,CAKI-1 renal,1350 nM
same,TGI,CAKI-1 renal,3280 nM
same,GI50,CCRF-CEM leukemia,1010 nM
same,TGI,CCRF-CEM leukemia,4460 nM
same,GI50,COLO 205 colon,1800 nM
same,TGI,COLO 205 colon,3900 nM
same,GI50,DU-145 prostate,2240 nM
same,TGI,DU-145 prostate,7460 nM
same,GI50,EKVX NSCLC,1340 nM
same,TGI,EKVX NSCLC,9530 nM
same,GI50,HCC-2998 colon,2530 nM
same,TGI,HCC-2998 colon,6710 nM
same,GI50,HCT-116 colon,1040 nM
same,TGI,HCT-116 colon,2510 nM
same,GI50,HCT-15 colon,1360 nM
same,TGI,HCT-15 colon,3000 nM
same,GI50,HL-60(TB) leukemia,1400 nM
same,TGI,HL-60(TB) leukemia,3760 nM
same,GI50,HOP-62 NSCLC,1350 nM
same,TGI,HOP-62 NSCLC,3310 nM
same,GI50,HOP-92 NSCLC,2310 nM
same,TGI,HOP-92 NSCLC,5990 nM
same,GI50,HS 578T breast,424 nM
same,TGI,HS 578T breast,2300 nM
same,GI50,HT29 colon,1600 nM
same,TGI,HT29 colon,3990 nM
same,GI50,IGROV1 ovarian,2450 nM
same,TGI,IGROV1 ovarian,8960 nM
same,GI50,KM12 colon,1660 nM
same,TGI,KM12 colon,4550 nM
same,GI50,LOX IMVI melanoma,1320 nM
same,TGI,LOX IMVI melanoma,2720 nM
same,GI50,M14 melanoma,1290 nM
same,TGI,M14 melanoma,3430 nM
same,GI50,MALME-3M melanoma,1780 nM
same,TGI,MALME-3M melanoma,4850 nM
same,GI50,MCF7 breast,1050 nM
same,TGI,MCF7 breast,3150 nM
same,GI50,MDA-MB-231 breast,1650 nM
same,TGI,MDA-MB-231 breast,4390 nM
same,GI50,MDA-MB-435,2080 nM
same,TGI,MDA-MB-435,6390 nM
same,GI50,MOLT-4 leukemia,561 nM
same,TGI,MOLT-4 leukemia,2700 nM
same,GI50,NCI-H226 lung,1490 nM
same,TGI,NCI-H226 lung,3400 nM
same,GI50,NCI-H23 lung,1770 nM
same,TGI,NCI-H23 lung,6240 nM
same,GI50,NCI-H460 lung,1270 nM
same,TGI,NCI-H460 lung,2860 nM
same,GI50,NCI/ADR-RES ovarian,1810 nM
same,TGI,NCI/ADR-RES ovarian,6150 nM
same,GI50,OVCAR-3 ovarian,2040 nM
same,TGI,OVCAR-3 ovarian,5290 nM
same,GI50,OVCAR-4 ovarian,1900 nM
same,TGI,OVCAR-4 ovarian,11300 nM
same,GI50,OVCAR-5 ovarian,1830 nM
same,TGI,OVCAR-5 ovarian,4390 nM
same,GI50,OVCAR-8 ovarian,1990 nM
same,TGI,OVCAR-8 ovarian,13600 nM
same,GI50,PC-3 prostate,603 nM
same,TGI,PC-3 prostate,8670 nM
same,GI50,RPMI-8226 leukemia,264 nM
same,TGI,RPMI-8226 leukemia,681 nM
same,GI50,RXF 393 renal,150 nM
same,TGI,RXF 393 renal,456 nM
same,GI50,SF-268 CNS,1860 nM
same,TGI,SF-268 CNS,7300 nM
same,GI50,SF-295 CNS,246 nM
same,TGI,SF-295 CNS,694 nM
same,GI50,SF-539 CNS,335 nM
same,TGI,SF-539 CNS,1310 nM
same,GI50,SK-MEL-2 melanoma,1280 nM
same,TGI,SK-MEL-2 melanoma,4350 nM
same,GI50,SK-MEL-28 melanoma,425 nM
same,TGI,SK-MEL-28 melanoma,1640 nM
same,GI50,SK-MEL-5 melanoma,1570 nM
same,TGI,SK-MEL-5 melanoma,2960 nM
same,GI50,SK-OV-3 ovarian,1850 nM
same,TGI,SK-OV-3 ovarian,4660 nM
same,GI50,SN12C renal,1830 nM
same,TGI,SN12C renal,4160 nM
same,GI50,SNB-19 CNS,1880 nM
same,TGI,SNB-19 CNS,6580 nM
same,GI50,SNB-75 CNS,568 nM
same,TGI,SNB-75 CNS,5440 nM
same,GI50,SR leukemia,493 nM
same,TGI,SR leukemia,2460 nM
same,GI50,SW-620 colon,1530 nM
same,TGI,SW-620 colon,3100 nM
same,GI50,T-47D breast,2110 nM
same,TGI,T-47D breast,8520 nM
same,GI50,TK-10 renal,2560 nM
same,TGI,TK-10 renal,6820 nM
same,GI50,U251 CNS,753 nM
same,TGI,U251 CNS,3340 nM
same,GI50,UACC-257 melanoma,1640 nM
same,TGI,UACC-257 melanoma,4290 nM
same,GI50,UACC-62 melanoma,1550 nM
same,TGI,UACC-62 melanoma,3430 nM
same,GI50,UO-31 renal,1230 nM
same,TGI,UO-31 renal,2820 nM
